Test: Photochromic characteristics of cast polymethyl methacrylate film (coloration under mercury lamp, fading)
Assay type: physicochemical
Details: PMMA film, 1.0×10^-4 mol/g, 0.1 mm, 35° C.; for t1/2 (half-value period of absorbance after irradiation): after 60 seconds' irradiation; for λ max (maximum absorption wavelength of the colored film) / ε (60 seconds)-ε (0 second): mercury lamp 60 seconds; for ε (60 seconds)-ε (0 second): absorbance at λmax
Description: The compound synthesized in Example 1, which was represented by the following formula: [drawing 286] was dissolved and dispersed in polymethyl methacrylate with the aid of benzene, and a cast film was prepared on a slide glass sheet (11.2 cm×3.7 cm) so that the concentration of the compound in the film was 1.0×10^-4 mol/g and the thickness of the film was 0.1 mm. The photochromic film was irradiated with rays of a mercury lamp (SHL-100 supplied by Toshiba) located 10 cm apart from the film at 35° C.+1° C. for 60 seconds to effect coloration in the film, and the photochromic characteristics were examined with respect to items described below.
Maximum absorption wavelength (λmax):
The maximum absorption wavelength λmax of the colored film was determined by using a spectrophotometer (220 A supplied by Hitachi).
After 60 seconds' irradiation under the above-mentioned conditions, the absorbance at the maximum absorption wavelength was measured.
The absorbance at the maximum absorption wavelength of the unirradiated film was measured. Half-value period t^1/2 :
After 60 seconds' irradiation, the time required for reduction of the absorbance of the film to 1/2 of [ε(60 seconds)-ε(0 second)] was measured.

Structure (SMILES) | t1/2 (half-value period of absorbance after irradiation) [s] | λ max (maximum absorption wavelength of the colored film) | ε (60 seconds)-ε (0 second)
CN1c2ccccc2C2(CC3CCC2C3)C12C=Nc1ccc3cccnc3c1O2 (centres unmarked) [Compound 2] | 18 | 603 | 1.4
CN(C)c1cc2c(c3ccccc13)OC1(C=N2)N(C)c2ccccc2C12CC1CCC2C1 (centres unmarked) [Compound 3] | 18 | 603 | 1.3
CCCN1c2ccc(C(F)(F)F)cc2C2(C3CC4CC(C3)CC2C4)C12C=Nc1ccc3ccccc3c1O2 (centres unmarked) [Compound 4] | 18 | 605 | 1.4
CCC1(CC)c2cc(O)cnc2N(C)C12C=Nc1ccc3ncccc3c1O2 (centres unmarked) [Compound 5] | 16 | 598 | 1.7
N#Cc1cnc2ccc3c(c2c1)OC1(C=N3)N(CCc2ccccc2)c2ccccc2C12CCCCC2 (centres unmarked) [Compound 7] | 18 | 601 | 1.8
CN1c2cc3occc3cc2C2(CC3CCC2C3)C12C=Nc1ccc3ccccc3c1O2 (centres unmarked) [Compound 8] | 18 | 603 | 1.4
CN1c2ccc(Cl)cc2C2(C3CC4CC(C3)CC2C4)C12C=Nc1cc(N3CCCCC3)c3ncccc3c1O2 (centres unmarked) [Compound 9] | 17 | 605 | 1.2
COC(=O)CN1c2ccc(N(C)C)cc2C2(CCCCC2)C12C=Nc1cc(Br)c3ccccc3c1O2 (centres unmarked) [Compound 11] | 17 | 607 | 1.3
COC(=O)CCCCN1c2cc3[nH]ccc3cc2C2(CC3CCC2C3)C12C=Nc1cc(-c3ccccc3)c3ncccc3c1O2 (centres unmarked) [Compound 13] | 18 | 607 | 1.4
COC(=O)CN1c2cc3ccc([N+](=O)[O-])cc3cc2C2(CC3CCC2C3)C12C=Nc1c(C(F)(F)F)cc3ncccc3c1O2 (centres unmarked) [Compound 14] | 16 | 606 | 1.4
CN1c2cc3ncc(-c4ccsc4)cc3cc2C2(C3CC4CC(C3)CC2C4)C12C=Nc1ccc3ccccc3c1O2 (centres unmarked) [Compound 15] | 16 | 607 | 1.3
COc1cc2c(c3ccccc13)OC1(C=N2)N(c2ccccc2)c2ccccc2C12CCCC2 (centres unmarked) [Compound 16] | 17 | 606 | 1.2
N#CCN1c2[nH]ccc2C2(CCCCCC2)C12C=Nc1cc(C#N)c3ccccc3c1O2 (centres unmarked) [Compound 17] | 18 | 606 | 1.4
COc1ccc2c(c1)C1(CCCCC1)C1(C=Nc3ccc4cc5[nH]ccc5cc4c3O1)N2C (centres unmarked) [Compound 19] | 17 | 607 | 1.2
COC(=O)c1cc2c(c3cc[nH]c13)OC1(C=N2)N(C)c2[nH]ccc2C12CCCCC2 (centres unmarked) [Compound 20] | 17 | 603 | 1.4
CN1c2ccc([N+](=O)[O-])cc2C2(CCCCC2)C12C=Nc1ccc3ccccc3c1O2 (centres unmarked) [Compound 21] | 18 | 610 | 1.2
CCCCN1c2cc(CC)ccc2C2(CC3CCC2C3)C12C=Nc1c(N)cc3occc3c1O2 (centres unmarked) [Compound 23] | 19 | 605 | 1.2
COC(=O)CN1c2cc(Cl)ccc2C2(C3CC4CC(C3)CC2C4)C12C=Nc1ccc3cc4ccc(Br)cc4cc3c1O2 (centres unmarked) [Compound 24] | 18 | 609 | 1.2

Structure (SMILES) | t1/2 (half-value period of absorbance after irradiation) [s] | λ max (maximum absorption wavelength of the colored film) | ε (60 seconds)-ε (0 second)
CN1c2ccccc2C2(CCCCC2)C12C=Nc1cc(Cc3ccccc3)c3ccccc3c1O2 (centres unmarked) [Compound 25] | 18 | 611 | 1.4
CN1c2ccccc2C2(CCCCC2)C12C=Nc1ccc3cnccc3c1O2 (centres unmarked) [Compound 26] | 17 | 619 | 1.8
CN1c2c(F)cc(F)cc2C2(CCCCC2)C12C=Nc1ccc3cnccc3c1O2 (centres unmarked) [Compound 27] | 15 | 613 | 1.7
Cc1cc2ccncc2c2c1N=CC1(O2)N(C(C)C)c2ccc(Cl)cc2C12CCCC2 (centres unmarked) [Compound 28] | 14 | 595 | 1.7
Cc1cc2c(c3ccnc(C)c13)OC1(C=N2)N(C(C)C)c2cc(Br)ccc2C12CCCCCC2 (centres unmarked) [Compound 29] | 16 | 602 | 1.6
CCC1(CC)c2cc(C(F)(F)F)ccc2N(Cc2ccccc2)C12C=Nc1cc(Cc3ccccc3)c3c(C)cncc3c1O2 (centres unmarked) [Compound 30] | 18 | 589 | 1.6
CCC1(C)c2cc(OC)ccc2N(Cc2ccccc2)C12C=Nc1cc(-c3ccccc3)c3c(OC)nccc3c1O2 (centres unmarked) [Compound 31] | 17 | 619 | 1.7
CCC1(CC)c2ccc(N(C)C)cc2N(CCc2ccccc2)C12C=Nc1c(Cl)cc3cc(OC)ncc3c1O2 (centres unmarked) [Compound 32] | 19 | 590 | 1.7
CN(C)c1cc2c(c3cc4cc[nH]c4cc13)OC1(C=N2)N(C)c2ncc(Cc3ccccc3)cc2C1(C)C (centres unmarked) [Compound 47] | 17 | 601 | 1.4
CN1c2occ(C#N)c2C(C)(C)C12C=Nc1cc(Cc3ccccc3)c3ncc(Br)cc3c1O2 (centres unmarked) [Compound 48] | 18 | 610 | 1.4
CN1c2cc(N3CCCC3)ccc2C(C)(C)C12C=Nc1c(C(F)(F)F)cc3ncccc3c1O2 (centres unmarked) [Compound 49] | 19 | 600 | 1.5
CC1(C)c2cc3cc(-c4ccsc4)oc3cc2N(CCC#N)C12C=Nc1c(N)cc3ncccc3c1O2 (centres unmarked) [Compound 50] | – | 605 | 1.5
COC(=O)c1cc2ncccc2c2c1N=CC1(O2)N(C)c2c(cc(C(F)(F)F)c(C(F)(F)F)c2C(F)(F)F)C1(C)C (centres unmarked) [Compound 51] | 18 | 609 | 1.4
COC(=O)c1ccc2c(c1)C(C)(C)C1(C=Nc3ccc4ncccc4c3O1)N2C (centres unmarked) [Compound 52] | 18 | 611 | 1.5
CN1c2ccccc2C(C)(C)C12C=Nc1ccc3cnccc3c1O2 (centres unmarked) [Compound 53] | 16 | 615 | 1.7
CN1c2c(F)cc(F)cc2C(C)(C)C12C=Nc1ccc3cnccc3c1O2 (centres unmarked) [Compound 54] | 14 | 609 | 1.5
Cc1cc2ccncc2c2c1N=CC1(O2)N(C(C)C)c2ccc(Cl)cc2C1(C)C (centres unmarked) [Compound 55] | 13 | 590 | 1.6

Reference: US5246989A, “Photochromic compound, composition and use thereof” (priority 1990, dated 1993)
